Laboratory results as given in patent EP4813463A2, “TYK2 INHIBITORS AND COMPOSITIONS AND METHODS THEREOF” (Lynk Pharmaceuticals Co. Ltd., priority 2023, dated 2024).
Like-named read-outs stand apart in the source and are kept apart here.

Tests used:
TYK2-JH2 domain = molecular target: T1, TYK2-JH2 domain (Homo sapiens, UniProt P29597); assay: Binding activity test for JH2 domain of TYK2 (Tb-antibody/tracer FRET); settings: for IC50: JH2 domain enzyme, 60 min at 25°C, then 4°C overnight, read-out: TYK2 JH2 Binding IC50; for JAK1/TYK2 selectivity: ratio of JAK1 JH2 to TYK2 JH2 binding IC50
T1 construct: JAK1-JH2 domain or TYK2-JH2 domain enzyme in assay buffer
Outline: (§1)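 Competitive TR-FRET binding: compounds dispensed as an 11-point 3-fold dilution series, then Tb-labelled antibody and tracer added to the JH2 protein system. Incubated at 25°C, then overnight at 4°C; FRET signal read on Envision and IC50 (nM) derived.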

JAK1-JH2 domain = molecular target: T2, JAK1-JH2 domain (Homo sapiens, UniProt P23458); assay: Binding activity test for JH2 domain of JAK1 (Tb-antibody/tracer FRET); settings: JH2 domain enzyme; 60 min at 25°C, then 4°C overnight; read-out: JAK1 JH2 Binding IC50
T2 construct: JAK1-JH2 domain or TYK2-JH2 domain enzyme in assay buffer
Outline: as §1

[1] = test system: Ba/F3-FL-TYK2-P760L cells; assay: Anti-proliferative assay in engineered Ba/F3 cells (Cell-Titer Glo, 72 h); assay type: cell-based; settings: 72 h compound treatment, concentration that causes 50% growth inhibition, read-out: Baf3-FL-T2P760L
Outline: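 Ba/F3 cells carrying Tel-dimerization/JAK kinase fusion, IL-3-independent, in RPMI-1640 + 10% FBS; 9-point 3-fold dilutions from 20 µM (0.1% DMSO) added after 24 h, 72 h at 37 °C. Viability by Cell-Titer Glo ATP luminescence; % inhibition versus DMSO cells, blank-corrected, giving IC50.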

[2] = Microsomal metabolic stability assay; assay type: in vitro ADME; settings: human, liver microsomes, pH 7.4, 0.5 mg/mL microsomal protein, 1 µM test article, 2 mM NADPH; for microsomal CLint at 1 µM: read-out: Human LM Clint; for half-life at 1 µM: read-out: Human LM T1/2
Method: Microsomes were pre-incubated with test compound or control compounds for 5 min at 37°C in 100 mM potassium phosphate buffer, pH 7.4, 1.0 mM EDTA. The reaction was initiated by addition of 15 µL of the NADPH regenerating system to 30 µL of each incubation mixture per time point. The final incubation condition was composed of 0.5 mg/mL microsomal protein, 1 µM test article/positive control, 2 mM NADPH. The 0-minute samples were prepared by addition of a 30 µL aliquot of each incubation mixture to 135 µL quench reagent to precipitate proteins. And then a 15 µL aliquot of the NADPH regenerating system was added. At 5, 15, 30 and 45 minutes, the reaction will be stopped by the addition of cold acetonitrile solution containing internal standard. The samples taken at all time points were centrifuged at 5000×g for 15 minutes. 50 µL of supernatant are taken into 96-well assay plates pre-added with 50 µL ultrapure water, and then analyzed by LC/MS/MS.
Concentrations of test articles, control compounds in the samples were determined by using LC/MS/MS method. Plotting of the chromatograms and peak area integrations are carried out by Analyst (AB Sciex).
In the determination of the in vitro elimination constant (ke) of the control compounds, the analyte/internal standard peak area ratios will be converted to percentage remaining (%Remaining) with the following equation: %Remaining = (Peak area ratio of analyte to IS at each time point)/(Peak area ratio of analyte to IS at t = 0) × 100% [formula]
The CLint of microsomes was calculated using the formula: CLint (mic)=0.693/T1/2 /mg microsome protein per mL. The slope was measured by the natural logarithm of the percentage of the residual compound and time, T1/2 was calculated according to the following formula. T = (0.693)/(−slope) [formula]

pSTAT1 = assay: Phosphorylation inhibition of STAT in human whole blood (IFN-alpha stimulated, flow cytometry); assay type: cell-based; settings: T-cell, 20 min, IFN-alpha stimulation 20 mins, CD3 T cells, read-out: pSTAT1 inhibition in hWB (IC50)
Method: The inhibitory potential of test articles in human whole blood assay was evaluated by the method of flow cytometry.
IFN-alpha will activate JAK1 and TYK2 kinase in T cells by binding to IFN receptors, and then lead to phosphorylation of STAT1 and STAT2. The phosphorylated STAT1 enter nuclear and promote transcription and expression of IFN-gamma. To evaluate the efficacy of TYK2i in T cells, freshly collected human whole blood will be stimulated with certain unit of human IFN-alpha (Universal Type I IFN(1MU), R&D, 11200-2) for 20 mins in incubator. After stimulation, fix cells with Phosflow™ Fix Buffer I (BD, 557870), and then collect fixed cells by centrifugation (500 g, 8min). Wash cells once with pre-cooled PBS, and then permeabilize cells with cold Perm Buffer III buffer (BD, 558050) for 45 mins on ice. Collect cells by centrifugation (600 g, 8min) and washed twice with cold PBS. Stain cells with anti-human CD3(FITC Mouse Anti-Human CD3, BD, 555332) and anti-pSTAT1_Y701(Alexa Fluor 647 Mouse Anti-Stat1 (pY701), BD, 612597) antibodies. Detect pSTAT1 by flow cytometry (CytoFlex S) and analyze data with FlowJo and GraphPad Prism 8 software. IC50 values of test articles were determined using 4- parameter logistic equation.

T1 sequence (P29597 589-875 limits assumed): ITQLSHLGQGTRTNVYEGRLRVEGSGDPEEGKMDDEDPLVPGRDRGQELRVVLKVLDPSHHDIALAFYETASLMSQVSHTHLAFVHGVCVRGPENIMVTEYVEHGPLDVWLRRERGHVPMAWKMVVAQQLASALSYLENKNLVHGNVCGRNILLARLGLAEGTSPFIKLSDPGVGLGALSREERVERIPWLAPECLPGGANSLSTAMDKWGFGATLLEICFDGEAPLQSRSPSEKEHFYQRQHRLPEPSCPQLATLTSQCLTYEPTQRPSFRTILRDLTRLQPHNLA
T2 sequence (P23458 583-855 limits assumed): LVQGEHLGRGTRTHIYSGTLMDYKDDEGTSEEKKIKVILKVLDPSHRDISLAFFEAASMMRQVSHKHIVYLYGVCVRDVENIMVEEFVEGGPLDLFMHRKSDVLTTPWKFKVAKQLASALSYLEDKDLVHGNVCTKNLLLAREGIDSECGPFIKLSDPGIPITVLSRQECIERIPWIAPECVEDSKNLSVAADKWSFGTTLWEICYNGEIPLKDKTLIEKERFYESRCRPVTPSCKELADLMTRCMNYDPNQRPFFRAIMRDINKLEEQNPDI

Row | IC50 (pSTAT1) | IC50 [1] | SMILES | IC50 (TYK2-JH2 domain) | JAK1/TYK2 selectivity (TYK2-JH2 domain) | IC50 (JAK1-JH2 domain) | IC50 ([1]; Mus musculus, BaF3, 72 h) | microsomal CLint at 1 µM [2] | half-life at 1 µM [2]
1 | – | – | CCn1nc(Nc2cc(NC(=O)C3CC3)ncc2C(=O)OC)c2c(OC)c(C(OC)C(F)(F)F)ccc21 (single isomer, unassigned) [Example 66B, Methyl (S*)-6-(cyclopropanecarboxamido)-4-((1-ethyl-4-methoxy-5-(2,2,2-trifluoro-1-methoxyethyl)-1H-indazol-3-yl)amino)nicotinate] | 0.13 nM | 719.87 | 90.7 nM | 12.5 nM | 14.2 µL/min/mg | 1.62 h
2 | – | – | [2H]C([2H])([2H])NC(=O)c1cnc(NC(=O)[C@@H]2C[C@@H]2F)cc1Nc1cnn2ccc(COC)c(OC)c12 [Example 17, 6-((1S,2S)-2-fluorocyclopropane-1-carboxamido)-4-((4-methoxy-5-(methoxymethyl)pyrazolo[1,5-a]pyridin-3-yl)amino)-N-(methyl-d3)nicotinamide] | 0.102 nM | 125.0 | 12.7 nM | 84.3 nM | 12.3 µL/min/mg | 1.87 h
3 | – | – | [2H]C([2H])([2H])NC(=O)c1cnc(NC(=O)C2CC2)cc1Nc1cnn2cnc(OC)c(OC)c12 [Example 35, 6-(Cyclopropanecarboxamido)-4-((4,5-dimethoxypyrazolo[1,5-c]pyrimidin-3-yl)amino)-N-(methyl-d3)nicotinamide] | 8.27 nM | 11.2 | 92.3 nM | 2340 nM | 5.72 µL/min/mg | 4.04 h
4 | – | – | [2H]C([2H])([2H])NC(=O)c1cnc(NC(=O)C2CC2)cc1Nc1cnn2cnc(C(C)C(F)(F)F)c(OC)c12 (centres unmarked) [Example 37, 6-(Cyclopropanecarboxamido)-4-((4-methoxy-5-(1,1,1-trifluoropropan-2-yl)pyrazolo[1,5-c]pyrimidin-3-yl)amino)-N-(methyl-d3)nicotinamide] | 1.65 nM | 67.1 | 111 nM | 768 nM | 12.3 µL/min/mg | 1.88 h
5 | – | – | COC(=O)c1cnc(NC(=O)C2CC2)cc1Nc1nn(C)c2ccc(C(O)C(F)(F)F)c(OC)c12 (centres unmarked) [Example 48, Methyl 6-(cyclopropanecarboxamido)-4-((4-methoxy-1-methyl-5-(2,2,2-trifluoro-1-hydroxyethyl)-1H-indazol-3-yl)amino)nicotinate] | 0.166 nM | 202.69 | 33.6 nM | 2.19 nM | 19.3 µL/min/mg | 1.2 h
6 | – | – | [2H]C([2H])([2H])O[C@@H](c1ccc2c(c(Nc3cc(NC(=O)C4CC4)ncc3C(=O)OC)nn2C([2H])([2H])[2H])c1OC)C(F)(F)F [Example 53B, Methyl (S)-6-(cyclopropanecarboxamido)-4-((4-methoxy-1-(methyl-d3)-5-(2,2,2-trifluoro-1-(methoxy-d3)ethyl)-1H-indazol-3-yl)amino)nicotinate] | 0.15 nM | – | – | 2.84 nM | 13.2 µL/min/mg | 1.75 h
7 | – | – | COC(=O)c1cnc(NC(=O)C2CC2)cc1Nc1nsc2ccc(C(OC)C(F)(F)F)c(OC)c12 (centres unmarked) [Example 67, Methyl 6-(cyclopropanecarboxamido)-4-((4-methoxy-5-(2,2,2-trifluoro-1-methoxyethyl)benzo[d]isothiazol-3-yl)amino)nicotinate] | 0.15 nM | – | – | 2.5 nM | 18.3 µL/min/mg | 1.26 h
8 | – | – | [2H]C([2H])([2H])OC(c1ccc2c(c(Nc3cc(NC(=O)C4CC4)ncc3C(=O)OC)nn2C([2H])([2H])[2H])c1OC)C(F)F (centres unmarked) [Example 102, Methyl 6-(cyclopropanecarboxamido)-4-((5-(2,2-difluoro-1-(methoxy-d3)ethyl)-4-methoxy-1-(methyl-d3)-1H-indazol-3-yl)amino)nicotinate] | 0.19 nM | 99.81 | 18.5 nM | 3.9 nM | 29.8 µL/min/mg | 0.776 h
9 | 401 nM | – | COC(=O)c1cnc(NC(=O)C2CC2)cc1Nc1nc2ccc(N3CC(OC)C3)cn2n1 [Example 107, Methyl 6-(cyclopropanecarbonylamino)-4-[[6-(3-methoxyazetidin-1-yl)-[1,2,4]triazolo[1,5-a]pyridin-2-yl]amino]pyridine-3-carboxylate] | 0.25 nM | – | – | 27.8 nM | – | –
10 | 177 nM | – | [2H]C([2H])([2H])CC(=O)c1cnc(NC(=O)C2CC2)cc1Nc1cnn2ccc([C@H](O)C(F)(F)F)c(OC)c12 [Example 141, (S)-N-(4-((4-methoxy-5-(2,2,2-trifluoro-1-hydroxyethyl)pyrazolo[1,5-a]pyridin-3-yl)amino)-5-(propanoyl-3,3,3-d3)pyridin-2-yl)cyclopropanecarboxamide] | 0.075 nM | – | – | 11.3 nM | – | –
11 | – | – | [2H]C([2H])(C)C(=O)c1cnc(NC(=O)C2CC2)cc1Nc1nn(C)c2ccc(C(O)C(F)(F)F)c(OC)c12 (centres unmarked) [Example 156, N-(4-((4-methoxy-1-methyl-5-(2,2,2-trifluoro-1-hydroxyethyl)-1H-indazol-3-yl)amino)-5-(propanoyl-2,2-d2)pyridin-2-yl)cyclopropanecarboxamide] | 0.163 nM | 86.87 | 14.2 nM | 1.76 nM | 26.2 µL/min/mg | 0.881 h
12 | – | 9.21 nM | [2H]C([2H])([2H])OC(c1ccc2c(c(Nc3cc(NC(=O)C4CC4)ncc3C(=O)OC)nn2CCOC)c1OC)C(F)(F)F (centres unmarked) [Example 157, Methyl 6-(cyclopropanecarboxamido)-4-((4-methoxy-1-(2-methoxyethyl)-5-(2,2,2-trifluoro-1-(methoxy-d3)ethyl)-1H-indazol-3-yl)amino)nicotinate] | 0.15 nM | – | – | – | 25.8 µL/min/mg | 0.897 h
13 | – | – | [2H]C([2H])([2H])NC(=O)c1cnc(NC(=O)C2CC2)cc1Nc1nn(C)c2ccc(C(C)C(F)(F)F)c(OC)c12 (centres unmarked) [Example 191, 6-(Cyclopropanecarboxamido)-4-((4-methoxy-1-methyl-5-(1,1,1-trifluoropropan-2-yl)-1H-indazol-3-yl)amino)-N-(methyl-d3)nicotinamide] | 0.132 nM | 45.15 | 5.96 nM | 2.51 nM | – | –
14 | – | – | [2H]C([2H])([2H])NC(=O)c1cnc(NC(=O)[C@@H]2C[C@@H]2F)cc1Nc1nn(C)c2ccc([C@H](O)C(F)(F)F)c(OC)c12 [Example 194, 6-((1S,2S)-2-Fluorocyclopropane-1-carboxamido)-4-((4-methoxy-1-methyl-5-((S)-2,2,2-trifluoro-1-hydroxyethyl)-1H-indazol-3-yl)amino)-N-(methyl-d3)nicotinamide] | 0.08 nM | 48.8 | 3.9 nM | 0.241 nM | – | –
